This note sets out measurements from patent US20070021451A1, “Method for preventing or treating neurologic damage after spinal cord injury” (HAMAMATSU UNIVERSITY SCHOOL OF MEDICINE, priority 2005, published 2007).

Each structure is given as a SMILES string.

This test relates to Rabbit Model of Spinal Cord Ischemia. Nature of the test: TUNEL staining of motor neurons (mid lumbar segment). It counts as in vivo, New Zealand White rabbits. To be noted: NS-7 15 minutes before ischemia or at the onset of reperfusion; P<0.05 vs control (FIG. 6). On the procedure: Twenty-six male New Zealand White rabbits weighting 2.2 to 3.0 kg were used in this experiment. Spinal cord ischemia was induced by occluding the abdominal aorta with […] for 20 minutes just distal to the renal arteries. Surgical preparation was conducted according to the method described in the literature, Terada H. et. al., J. Thorac. Cardiovasc. Surg. 2001; 122: 979-85. A 24-gauge venous catheter was placed in the marginal ear vein for drug administration. The rabbits were anesthetized with intravenous sodium pentobarbital (25 mg/kg) and allowed to breathe spontaneously. Lidocaine (0.5%) was administered at the site of the skin incision as local anesthesia. The left common carotid artery was cannulated with a 24-gauge catheter for monitoring the arterial pressure. Core body temperature was continuously monitored with a rectal probe and was maintained at 38.5° C. with the aid of heating lamp. The infrarenal abdominal aorta was exposed through a transperitoneal approach. […] The number of motor neurons that were positive in TUNEL staining was counted in 3 sections, and the values were averaged (Sakurai M., J. Thorac. Cardiovasc. Surg. 2000; 120: 1148-57, Lang-Lazdunski L., J. Vasc. Surg. 2003; 38: 564-75). […]

Regarding `Cc1cc(-c2ccc(F)cc2)cc(OCCCCCN2CCCCC2)n1.Cl` [NS-7, 4-(4-Fluorophenyl)-2-methyl-6-(5-piperidinopentyloxy)pyridine hydrochloride], the “Total number of apoptotic (TUNEL-positive) motor neurons” value is “strongly reduced”.
